Where two headings read alike, the source gives them in different places.
Legend:
human hepatocytes = assay: Metabolic studies in primary hepatocytes; assay type: in vitro ADME; details: 10 μM, 2-24 hr
Procedure: The metabolism of compounds 25, 27 and 5-2, at a concentration of 10 μM, were investigated in fresh primary cultures of human, dog and mouse hepatocytes. Plated hepatocytes from humans (XenoTech, mixed gender, pooled from 10 donors), male Beagle dog (BioreclamationIVT), and male ICR/CD-1 mice (BioreclamationIVT, 8 donors) in 6-well plates with matrigel overlay were incubated in singlet with 10 μM TA. After 2, 4, 6, 8 or 24 hr, intracellular levels of nucleotide prodrugs and their potential metabolites (prodrugs, monophosphates, triphosphates and nucleosides) were quantitated by LC-MS/MS. Concentrations below the lower limit of quantitation (1.5 pmol/10^6 cells for prodrugs, monophosphates and nucleosides and 12 pmol/10^6 cells for triphosphates) were extrapolated from the standard curves.

HCV S282T replicon = assay: microbe, parasite or virus in culture; assay type: cell-based; details: for IC50: Hepatitis C virus, 96 h, read-out: IC50 Value; for Fold Change in IC50 from Sofosbuvir / Fold Change in IC95 from Sofosbuvir / IC95 Value: NS5B Mutation S282T; for IC95 Value: transient assay, 96-hr
Procedure: (§1) A transient transfection assay was performed to determine the sensitivity of the […] of HCV to test compounds. Huh-7 cells were electroporated in the presence of RNA transcribed from wild type or S282T HCV replicon plasmids from the T7 promoter. The transfected cells were seeded in to 96-well plates at 7.5×10^3 cells per well in Dulbecco's Modified Eagle's medium. After 24 hr of incubation, medium was removed and replaced with fresh medium containing no or various concentrations of test compounds. Following an additional 96-hr incubation, the anti-HCV activity was measured by luciferase endpoint with Britelite™ Plus luminescence reporter gene kit (Perkin Elmer, Shelton, CT). Duplicate plates were treated and incubated in parallel for assessment of cellular toxicity by staining with the tetrazolium dye XTT.

HCV wild type replicon = assay: microbe, parasite or virus in culture; assay type: cell-based; details: for IC50: Hepatitis C virus, read-out: IC50 Value
Procedure: as §1

[1] = Cytotoxicity by XTT staining in replicon cells; details: human
Outline: (§2)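 Cells cultured 24 h, then exposed 72 h to six half-log dilutions (top 100.0 or 1.0 μM) in triplicate, with interferon-alpha2b reference and medium-only controls. Viability read by XTT staining on a parallel plate; TC50 derived from concentration-response.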

Huh-7 luc/neo ET cells = assay: Cytotoxicity by XTT staining in replicon cells
Outline: as §2

iPS Cardiomyocytes = assay: iPS Cardiomyocyte Assay; assay type: cell-based, human; details: 3 days, XTT
Procedure: iPS Cardiomyocytes (Cellular Dynamics) were seeded in microliter plates at 1.5×10^4 cells per well. After 48-hr incubation, cells were washed and maintenance medium containing serially diluted TA was added in triplicate. After incubating for an additional 3 days, cell viability was measured by staining with XTT and CC50 values were calculated.

[2] = system: HCV Genotype 1a, NS5B Mutation L159F and S282T; assay: microbe, parasite or virus in culture; assay type: cell-based; details: for IC50: Hepatitis C virus, read-out: IC50 Value; for Fold Change in IC50 from Sofosbuvir / Fold Change in IC95 from Sofosbuvir / IC95 Value: genotype 1a, NS5B L159F and S282T
Procedure: (§3) Various patient-derived HCV genotypes containing wild-type and resistance-associated variants were used to determine their relative replication sensitivity to test compounds. Replicon resistance test vectors (RTVs) containing the NS5B genomic regions were prepared using viral RNA isolated from plasma of HCV patients. Each NS5B region was amplified by reverse-transcription polymerase chain reaction and cloned into an HCV replicon RTV which was then transferred by electroporation into Huh-7 cells.

[3] = system: HCV Genotype 1a, NS5B Mutation L159F; assay: microbe, parasite or virus in culture; assay type: cell-based; details: for IC50: Hepatitis C virus, read-out: IC50 Value; for Fold Change in IC50 from Sofosbuvir / Fold Change in IC95 from Sofosbuvir / IC95 Value: genotype 1a, NS5B L159F
Procedure: as §3

[4] = system: HCV Genotype 4a, NS5B Mutation none; assay: microbe, parasite or virus in culture; assay type: cell-based; details: for IC50: Hepatitis C virus, read-out: IC50 Value; for Fold Change in IC50 from Sofosbuvir / Fold Change in IC95 from Sofosbuvir / IC95 Value: genotype 4a, no NS5B mutation
Procedure: as §3

[5] = system: HCV Genotype 2b, NS5B Mutation none; assay: microbe, parasite or virus in culture; assay type: cell-based; details: for IC50: Hepatitis C virus, read-out: IC50 Value; for Fold Change in IC50 from Sofosbuvir / Fold Change in IC95 from Sofosbuvir / IC95 Value: genotype 2b, no NS5B mutation
Procedure: as §3

[6] = system: HCV Genotype 3a-2, NS5B Mutation none; assay: microbe, parasite or virus in culture; assay type: cell-based; details: for IC50: Hepatitis C virus, read-out: IC50 Value; for Fold Change in IC50 from Sofosbuvir / Fold Change in IC95 from Sofosbuvir / IC95 Value: genotype 3a-2, no NS5B mutation
Procedure: as §3

[7] = system: HCV Genotype 3a-1, NS5B Mutation none; assay: microbe, parasite or virus in culture; assay type: cell-based; details: for IC50: Hepatitis C virus, read-out: IC50 Value; for Fold Change in IC50 from Sofosbuvir / Fold Change in IC95 from Sofosbuvir / IC95 Value: genotype 3a-1, no NS5B mutation
Procedure: as §3

[8] = system: HCV Genotype 4d, NS5B Mutation none; assay: microbe, parasite or virus in culture; assay type: cell-based; details: for IC50: Hepatitis C virus, 96 h, read-out: IC50 Value; for Fold Change in IC50 from Sofosbuvir / Fold Change in IC95 from Sofosbuvir / IC95 Value: genotype 4d, no NS5B mutation
Procedure: as §3

[9] = system: HCV Genotype 1a, NS5B Mutation none; assay: microbe, parasite or virus in culture; assay type: cell-based; details: for IC50: Hepatitis C virus, read-out: IC50 Value; for Fold Change in IC50 from Sofosbuvir / Fold Change in IC95 from Sofosbuvir / IC95 Value: genotype 1a, no NS5B mutation
Procedure: as §3

[10] = system: human bone marrow progenitor cells; assay: Human Bone Marrow Progenitor Cell Assay; assay type: cell-based; details: 14-day incubations, colony counts
Procedure: Fresh human bone marrow progenitor cells (Invitrogen) suspended in either BFU-E or GM-CSF-specific culture medium were added, at 10^5 cells/well, to triplicate serial dilutions of TA in 6-well plates. After 14-day incubations, colony counts were used to determine CC50 values. BFU-E colonies were confirmed using the benzidene technique.

[11] = system: HCV genotype 1b luciferase reporter replicon; assay: microbe, parasite or virus in culture; assay type: cell-based; details: Hepatitis C virus, HuH-7-Luc/Neo-ET, 72 h, read-out: HCV Replicon EC50/EC95: EC50
[12] = NS5B Mutation None, transient assay, 96-hr

## CNc1nc(N)nc2c1ncn2[C@@H]1OC(CO[P@@](=O)(N[C@@H](C)C(=O)OC(C)C)Oc2ccccc2)[C@@H](O)[C@@]1(C)F (stereo partly drawn) [Compound 5-2]
Human hepatocytes
  predominant metabolite observed in cultured human hepatocytes: β-D-2′-deoxy-2′-α-fluoro-2′-β-methyl-guanine triphosphate
HCV S282T replicon
  cross-resistance to S282T variant: neither 25, 27, nor 5-2 compounds showed any evidence of cross-resistance
  IC50: 2.8 nM
  Fold Change in IC50 from Sofosbuvir: 99.3
  Fold Change in IC95 from Sofosbuvir: <48.5
  IC95 Value: 20.6 nM
HCV wild type replicon; [12]
  IC50: 1.4 nM
  IC95 Value: 9.98 nM
HCV wild type replicon; NS5B Mutation None
  Fold Change in IC50 from Sofosbuvir: 26
  Fold Change in IC95 from Sofosbuvir: 22.2
[1]
  CC50 at 72 h: > 100 µM
Huh-7 luc/neo ET cells
  TC50: greater than one hundred
iPS Cardiomyocytes
  cytotoxicity against iPS cardiomyocytes in vitro: no cytotoxicity
[2]
  cross-resistance to L159F and S282T mutant: neither 25, 27 nor 5-2 compound showed any evidence of cross-resistance
  IC50: 38.7 nM
  Fold Change in IC50 from Sofosbuvir: 41.9
  Fold Change in IC95 from Sofosbuvir: 54.1
  IC95 Value: 313.5 nM
[3]
  cross-resistance to L159F mutant: neither 25, 27 nor 5-2 compound showed any evidence of cross-resistance
  IC50: 13 nM
  Fold Change in IC50 from Sofosbuvir: 8.8
  Fold Change in IC95 from Sofosbuvir: 11.2
  IC95 Value: 95.3 nM
[4]
  IC50: 9.9 nM
  Fold Change in IC50 from Sofosbuvir: 7.5
  Fold Change in IC95 from Sofosbuvir: 9.2
  IC95 Value: 74.4 nM
[5]
  IC50: 6.3 nM
  Fold Change in IC50 from Sofosbuvir: 7.1
  Fold Change in IC95 from Sofosbuvir: 9.1
  IC95 Value: 32.5 nM
[6]
  IC50: 10.4 nM
  Fold Change in IC50 from Sofosbuvir: 11.9
  Fold Change in IC95 from Sofosbuvir: 14.3
  IC95 Value: 56.5 nM
[7]
  IC50: 11.8 nM
  Fold Change in IC50 from Sofosbuvir: 10.7
  Fold Change in IC95 from Sofosbuvir: 11.6
  IC95 Value: 59.3 nM
[8]
  IC50: 14 nM
  Fold Change in IC50 from Sofosbuvir: 6.7
  Fold Change in IC95 from Sofosbuvir: 12.8
  IC95 Value: 79.9 nM
[9]
  IC50: 10.5 nM
  Fold Change in IC50 from Sofosbuvir: 6.0
  Fold Change in IC95 from Sofosbuvir: 8.4
  IC95 Value: 60.8 nM
[10]
  cytotoxicity against bone marrow stem cells in vitro: no cytotoxicity
[11]
  EC50: 4 nM

## CC(C)OC(=O)[C@H](C)N[P@](=O)(OCC1O[C@@H](n2cnc3c(N(C)C)nc(N)nc32)[C@](C)(F)[C@@H]1O)Oc1ccccc1 (stereo partly drawn) [Compound 25, isopropyl ((((S)-(2R,3R,4R,5R)-5-(2-amino-6-(dimethylamino)-9H-purin-9-yl)-4-fluoro-3-hydroxy-4-methyltetrahydrofuran-2-yl)methoxy)-phenoxy-phosphoryl)-L-alaninate]
Human hepatocytes
  predominant metabolite observed in cultured human hepatocytes: β-D-2′-deoxy-2′-α-fluoro-2′-β-methyl-guanine triphosphate
HCV S282T replicon
  cross-resistance to S282T variant: neither 25, 27, nor 5-2 compounds showed any evidence of cross-resistance
  IC50: < 1 nM
  Fold Change in IC50 from Sofosbuvir: >278
  Fold Change in IC95 from Sofosbuvir: >106.4
  IC95 Value: 9.4 nM
HCV wild type replicon
  IC95 Value: 2.7 nM
HCV wild type replicon; 96 h
  IC50: < 1 nM
HCV wild type replicon; NS5B Mutation None
  Fold Change in IC50 from Sofosbuvir: >36.4
  Fold Change in IC95 from Sofosbuvir: 80.7
[1]
  CC50 at 72 h: > 100 µM
Huh-7 luc/neo ET cells; read-out: HCV Replicon CC50, XTT, 72 hours
  CC50: > 100 µM
Huh-7 luc/neo ET cells; read-out: TC50, FIG. 3 legend
  CC50: > 100 µM
iPS Cardiomyocytes
  cytotoxicity against iPS cardiomyocytes in vitro: no cytotoxicity
[2]
  cross-resistance to L159F and S282T mutant: neither 25, 27 nor 5-2 compound showed any evidence of cross-resistance
  IC50: 17.2 nM
  Fold Change in IC50 from Sofosbuvir: 94.0
  Fold Change in IC95 from Sofosbuvir: 107.0
  IC95 Value: 158.5 nM
[3]
  cross-resistance to L159F mutant: neither 25, 27 nor 5-2 compound showed any evidence of cross-resistance
  IC50: 5.2 nM
  Fold Change in IC50 from Sofosbuvir: 22.0
  Fold Change in IC95 from Sofosbuvir: 26.4
  IC95 Value: 40.4 nM
[4]
  IC50: 4.6 nM
  Fold Change in IC50 from Sofosbuvir: 16.2
  Fold Change in IC95 from Sofosbuvir: 20.7
  IC95 Value: 33.0 nM
[5]
  IC50: 3 nM
  Fold Change in IC50 from Sofosbuvir: 15.2
  Fold Change in IC95 from Sofosbuvir: 19.9
  IC95 Value: 14.9 nM
[6]
  IC50: 4.7 nM
  Fold Change in IC50 from Sofosbuvir: 26.3
  Fold Change in IC95 from Sofosbuvir: 33.4
  IC95 Value: 24.2 nM
[7]
  IC50: 5.1 nM
  Fold Change in IC50 from Sofosbuvir: 24.5
  Fold Change in IC95 from Sofosbuvir: 24.8
  IC95 Value: 27.8 nM
[8]
  IC50: 5.9 nM
  Fold Change in IC50 from Sofosbuvir: 16.0
  Fold Change in IC95 from Sofosbuvir: 23.1
  IC95 Value: 44.2 nM
[9]
  IC50: 4.4 nM
  Fold Change in IC50 from Sofosbuvir: 14.2
  Fold Change in IC95 from Sofosbuvir: 16.2
  IC95 Value: 31.3 nM
[10]
  cytotoxicity against bone marrow stem cells in vitro: no cytotoxicity
[11]
  EC50: 4 nM
